Measured values published in publication PMC7136958, “Targeting the pregnane X receptor using microbial metabolite mimicry” (EMBO Molecular Medicine, 2020).
Values joined by “and” are separate entries in the source; they are usually repeats but may differ in a detail not shown here. Equal entries are not always repeated.

Legend:
AhR = target: T1, AhR (Homo sapiens, UniProt P35869); test: AhR reporter assay, HepG2 cells stably expressing pCYP1A1 luciferase (AZ-AHR); assay type: cell-based; conditions: AZ-AHR cells, fold vs DMSO; for fold induction at 24 h, 0.001 µM / fold induction at 24 h, 0.01 µM / fold induction at 24 h, 0.1 µM / fold induction at 24 h, 1 µM / fold induction at 24 h, 10 µM: human
T1 construct: endogenous in cells; host or cells: AZ-AHR (HepG2)
T1 sequence (P35869 11-848): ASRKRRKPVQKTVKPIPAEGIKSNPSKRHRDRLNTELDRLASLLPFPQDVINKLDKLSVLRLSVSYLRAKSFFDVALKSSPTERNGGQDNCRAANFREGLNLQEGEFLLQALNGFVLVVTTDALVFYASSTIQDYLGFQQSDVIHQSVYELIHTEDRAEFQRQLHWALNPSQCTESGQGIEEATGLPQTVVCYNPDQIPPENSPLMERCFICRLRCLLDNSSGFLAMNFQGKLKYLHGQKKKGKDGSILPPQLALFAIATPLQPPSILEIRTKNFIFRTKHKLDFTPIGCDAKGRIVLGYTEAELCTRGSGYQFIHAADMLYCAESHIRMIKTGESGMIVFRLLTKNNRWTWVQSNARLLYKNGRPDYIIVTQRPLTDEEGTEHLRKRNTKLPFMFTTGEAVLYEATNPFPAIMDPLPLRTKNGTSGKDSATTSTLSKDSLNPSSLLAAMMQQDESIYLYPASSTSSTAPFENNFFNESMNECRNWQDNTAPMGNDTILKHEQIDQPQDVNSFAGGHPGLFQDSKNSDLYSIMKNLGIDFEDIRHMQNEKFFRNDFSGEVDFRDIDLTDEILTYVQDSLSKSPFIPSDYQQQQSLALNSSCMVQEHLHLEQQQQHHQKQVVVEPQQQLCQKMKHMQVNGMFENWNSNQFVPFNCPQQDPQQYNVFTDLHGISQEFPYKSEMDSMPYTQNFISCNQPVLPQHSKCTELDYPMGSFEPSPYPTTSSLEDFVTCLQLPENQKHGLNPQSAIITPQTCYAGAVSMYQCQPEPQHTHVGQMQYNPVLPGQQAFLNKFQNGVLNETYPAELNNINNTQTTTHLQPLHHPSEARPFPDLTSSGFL
Method: Incubations were performed in four technical replicates.

PXR = target: T2, PXR (Homo sapiens, UniProt O75469); test: PXR reporter (p3A4-luc luciferase) assay in LS180 cells transiently transfected with wild-type PXR; conditions: for FOLD INDUCTION of PXR reporter luciferase activity: 24 h, over UT; for fold induction at 0.001 µM / fold induction at 0.01 µM / fold induction at 0.1 µM / fold induction at 1 µM / fold induction at 10 µM / fold induction at 25 µM: LS180, read-out: FOLD INDUCTION of PXR reporter luciferase activity
T2 sequence (O75469 1-434): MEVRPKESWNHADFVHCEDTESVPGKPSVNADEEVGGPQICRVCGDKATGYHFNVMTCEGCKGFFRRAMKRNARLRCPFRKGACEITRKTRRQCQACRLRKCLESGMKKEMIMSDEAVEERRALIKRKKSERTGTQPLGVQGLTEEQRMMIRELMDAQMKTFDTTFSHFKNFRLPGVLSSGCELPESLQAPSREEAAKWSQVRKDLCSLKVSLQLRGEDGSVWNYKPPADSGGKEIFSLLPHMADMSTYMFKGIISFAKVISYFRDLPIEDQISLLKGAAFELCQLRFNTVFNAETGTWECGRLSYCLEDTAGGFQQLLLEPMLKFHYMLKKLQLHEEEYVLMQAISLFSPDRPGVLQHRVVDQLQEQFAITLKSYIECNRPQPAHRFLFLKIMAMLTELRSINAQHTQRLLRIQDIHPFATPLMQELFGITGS

S. typhimurium 14038 = test: Salmonella invasion (gentamicin protection assay) in Caco-2 monolayers; assay type: cell-based, Salmonella typhimurium; conditions: for cytokine-induced salmonella invasion: 10 and 25 μM, vs cytokines only; for Salmonella CFU/ml: Caco-2 cells, triplicate
Method: FKK compounds were tested for their ability to prevent Salmonella invasion in vitro in non‐inflamed and inflamed cell cultures. Overnight cultures of S. typhimurium 14038 were diluted to OD600 0.01 and injected into with HIOs or immersed over Caco‐2 monolayers for 1 h at 37°C. The invasive ability of Salmonella was assessed using the gentamicin protection assay (Gagnon et al, 2013). Bacterial adhesion scenarios to the Caco‐2 surface were set up as described above. Non‐adhered bacteria were removed by washing twice in PBS, followed by incubation with 1 ml gentamicin (150 μg/ml in DMEM) for 1 h at 37°C to kill the adhered extracellular bacteria. Dead bacteria were removed by washing twice in PBS, followed by incubation with 500 μl 0.1% Triton X‐100 for 15 min at 37°C to lyse the HIOs and Caco‐2, and release the intracellular (invaded) bacteria. Serial fold dilutions and plating were then employed to determine CFU/ml. We normalized to total protein using Bradford assay.

[1] = test system: ABCC2, UGT1A1, ABCB1, CYP3A4, GSTA1 mRNA; test: PXR target gene mRNA in human duodenal enteroids; conditions: for ABCB1 (MDR1) mRNA fold change, Mean / ABCC2 mRNA fold change, Mean / CYP3A4 mRNA fold change, Mean / GSTA1 mRNA fold change, Mean / UGT1A1 mRNA fold change, Mean: 10 μM, 24 h, n=3
Method: Discarded duodenum tissue after surgery was obtained and used to isolate crypts. Embedded crypts in Matrigel formed 3D structures referred to as “enteroids”. […] DMSO was added to enteroids as a negative control. After incubation for 24 h, enteroids were collected in RNA‐free tube followed by breaking down Matrigel by pipetting vigorously (using 1 ml PBS). The enteroids were pelleted at 16,000 g for 3 min (4°C). RNA was extracted using miRNA isolation kit (Invitrogen; #AM1561) using the protocol provided by Invitrogen. […] PowerUp SYBR Green (Applied Biosystem, #A25742) was used for RT–PCR and performed 40 cycles using Quant Studio3 (Invitrogen, #A28132).

[2] = compound 10µm, no cytokines, 6 hr
[3] = compound 10µm, no cytokines, 12 hr
[4] = compound 25µm, no cytokines, 6 hr
[5] = cytokines + compound 10µm, 6 hr
[6] = cytokines + compound 25µm, 6 hr
[7] = cytokines + compound 25µm, 12 hr

Structure (SMILES): O=S(=O)(c1ccccc1)n1c(C(O)c2ccncc2)cc2ccccc21 (racemic) [FKK1]
- FOLD INDUCTION (AZ-AHR luciferase) (AhR; 1 nM): 0.7 fold
- FOLD INDUCTION (AZ-AHR luciferase) (AhR; 10 nM): 0.746 fold
- FOLD INDUCTION (AZ-AHR luciferase) (AhR; 100 nM): 1.1 fold
- FOLD INDUCTION (AZ-AHR luciferase) (AhR; 1µM): 0.9 fold
- FOLD INDUCTION (AZ-AHR luciferase) (AhR; 10 µM): 2.8 fold
- aver (mean luciferase signal of H1-H4) (PXR; 1 nM): 3470.0
- FOLD INDUCTION of PXR reporter luciferase activity (PXR; 1 nM): 1.6 fold
- aver (mean luciferase signal of H1-H4) (PXR; 10 nM): 3768.8
- FOLD INDUCTION of PXR reporter luciferase activity (PXR; 10 nM): 1.8 fold
- aver (mean luciferase signal of H1-H4) (PXR; 100 nM): 3738.8
- FOLD INDUCTION of PXR reporter luciferase activity (PXR; 100 nM): 1.7 fold
- aver (mean luciferase signal of H1-H4) (PXR; 1 uM): 28708.8
- FOLD INDUCTION of PXR reporter luciferase activity (PXR; 1 uM): 13.4 fold
- aver (mean luciferase signal of H1-H4) (PXR; 10 uM): 56319.0
- FOLD INDUCTION of PXR reporter luciferase activity (PXR; 10 uM): 26.3 fold
- aver (mean luciferase signal of H1-H4) (PXR; 25 uM): 51971.3
- FOLD INDUCTION of PXR reporter luciferase activity (PXR; 25 uM): 24.3 fold

Structure (SMILES): O=C(c1ccncc1)c1cc2ccccc2n1S(=O)(=O)c1ccccc1 [FKK5, (1-(phenylsulfonyl)-1H-indol-2-yl)(pyridin-4-yl)methanone]
- cytokine-induced salmonella invasion (S. typhimurium 14038): significantly decreased
- Salmonella CFU/ml (S. typhimurium 14038; [2]): 5980 CFU/ml and 4820 CFU/ml and 5870 CFU/ml
- Salmonella CFU/ml (S. typhimurium 14038; [3]): 5920 CFU/ml and 4240 CFU/ml and 5520 CFU/ml
- Salmonella CFU/ml (S. typhimurium 14038; [4]): 4940 CFU/ml and 4950 CFU/ml and 4400 CFU/ml
- Salmonella CFU/ml (S. typhimurium 14038; [5]): 5800 CFU/ml and 5710 CFU/ml and 4100 CFU/ml
- Salmonella CFU/ml (S. typhimurium 14038; cytokines + compound 10µm, 12 hr): 2240 CFU/ml and 4480 CFU/ml and 4320 CFU/ml
- Salmonella CFU/ml (S. typhimurium 14038; [6]): 3700 CFU/ml and 3900 CFU/ml and 3270 CFU/ml
- Salmonella CFU/ml (S. typhimurium 14038; [7]): 3040 CFU/ml and 3240 CFU/ml and 2560 CFU/ml
- salmonella invasion, compound alone (S. typhimurium 14038; no cytokines): No significant effect
- fold induction at 24 h, 0.001 µM (AhR; 1 nM): 0.755
- fold induction at 24 h, 0.01 µM (AhR; 10 nM): 0.8
- fold induction at 24 h, 0.1 µM (AhR; 100 nM): 0.7
- fold induction at 24 h, 1 µM (AhR; 1µM): 0.7
- fold induction at 24 h, 10 µM (AhR; 10 µM): 1.2
- PXR target gene induction (in words) [1]: significantly induced
- ABCB1 (MDR1) mRNA fold change, Mean [1]: 2.409 fold
- ABCC2 mRNA fold change, Mean [1]: 4.345 fold
- CYP3A4 mRNA fold change, Mean [1]: 2.034 fold
- GSTA1 mRNA fold change, Mean [1]: 4.61 fold
- UGT1A1 mRNA fold change, Mean [1]: 1.773 fold
- aver (mean luciferase signal of H1-H4) (PXR; 1 nM): 4417.0
- aver (mean luciferase signal of H1-H4) (PXR; 10 nM): 4539.3
- aver (mean luciferase signal of H1-H4) (PXR; 100 nM): 4741.5
- aver (mean luciferase signal of H1-H4) (PXR; 1 uM): 29157.3
- aver (mean luciferase signal of H1-H4) (PXR; 10 uM): 116028.0
- aver (mean luciferase signal of H1-H4) (PXR; 25 uM): 119010.3
- fold induction at 0.001 µM (PXR): 1.4
- fold induction at 0.01 µM (PXR): 1.4
- fold induction at 0.1 µM (PXR): 1.5
- fold induction at 1 µM (PXR): 9.1
- fold induction at 10 µM (PXR): 36.4
- fold induction at 25 µM (PXR): 37.3

Structure (SMILES): C#CCC(O)(c1ccncc1)c1cc2ccccc2n1S(=O)(=O)c1ccccc1 (stereo not shown) [FKK6]
- cytokine-induced salmonella invasion (S. typhimurium 14038): significantly decreased
- Salmonella CFU/ml (S. typhimurium 14038; [2]): 3008 CFU/ml and 3000 CFU/ml and 1800 CFU/ml
- Salmonella CFU/ml (S. typhimurium 14038; [3]): 1840 CFU/ml and 3520 CFU/ml and 2960 CFU/ml
- Salmonella CFU/ml (S. typhimurium 14038; [4]): 2076 CFU/ml and 2290 CFU/ml and 2980 CFU/ml
- Salmonella CFU/ml (S. typhimurium 14038; compound 25µm, no cytokines, 12 hr): 1360 CFU/ml and 2480 CFU/ml and 2320 CFU/ml
- Salmonella CFU/ml (S. typhimurium 14038; [5]): 2276 CFU/ml and 2820 CFU/ml and 1500 CFU/ml
- Salmonella CFU/ml (S. typhimurium 14038; [6]): 1940 CFU/ml and 1870 CFU/ml and 1600 CFU/ml
- Salmonella CFU/ml (S. typhimurium 14038; [7]): 2520 CFU/ml and 1360 CFU/ml
- salmonella invasion, compound alone (S. typhimurium 14038; no cytokines): No significant effect
- fold induction at 24 h, 0.001 µM (AhR; 1 nM): 0.8
- fold induction at 24 h, 0.01 µM (AhR; 10 nM): 0.7
- fold induction at 24 h, 0.1 µM (AhR; 100 nM): 0.8
- fold induction at 24 h, 1 µM (AhR; 1µM): 1.1
- fold induction at 24 h, 10 µM (AhR; 10 µM): 3.2
- PXR target gene induction (in words) [1]: significantly induced
- ABCB1 (MDR1) mRNA fold change, Mean [1]: 3.883 fold
- ABCC2 mRNA fold change, Mean [1]: 4.029 fold
- CYP3A4 mRNA fold change, Mean [1]: 1.665 fold
- GSTA1 mRNA fold change, Mean [1]: 1.768 fold
- UGT1A1 mRNA fold change, Mean [1]: 2.472 fold
- aver (mean luciferase signal of H1-H4) (PXR; 1 nM): 5692.0
- aver (mean luciferase signal of H1-H4) (PXR; 10 nM): 9322.0
- aver (mean luciferase signal of H1-H4) (PXR; 100 nM): 9089.3
- aver (mean luciferase signal of H1-H4) (PXR; 1 uM): 73854.3
- aver (mean luciferase signal of H1-H4) (PXR; 10 uM): 113299.3
- aver (mean luciferase signal of H1-H4) (PXR; 25 uM): 99812.0
- fold induction at 0.001 µM (PXR): 1.8
- fold induction at 0.01 µM (PXR): 2.9
- fold induction at 0.1 µM (PXR): 2.8
- fold induction at 1 µM (PXR): 23.1
- fold induction at 10 µM (PXR): 35.5
- fold induction at 25 µM (PXR): 31.3
- PXR activation (in words) (PXR; cell-based transactivation): activated human PXR
